From publication PMC9736855, “Discovery of 3-Amino-1H-pyrazole-Based Kinase Inhibitors to Illuminate the Understudied PCTAIRE Family” (International Journal of Molecular Sciences, 2022)

Legend:
CDK2 [1] = biological target: T1, CDK2 (Homo sapiens, UniProt P24941); assay: DSF; type: binding; settings: 10 μM compound
T1 construct: purchased in-house DSF panel (SGC Frankfurt)
Text: (§1) To investigate the selectivity profile of the different series, a differential scanning fluorimetry (DSF) assay was used. This assay offers a rapid and sensitive screening method that determines the denaturation temperature of a protein in absence and presence of a compound. This assay format measures the fluorescence of a dye, which depends on the folding state of the protein. The difference between the melting temperature (ΔTm) in the absence and presence of the compound represents the binding strength to the protein.
(§2) Measurements were performed in duplicates.

CDK16 = biological target: T2, CDK16 (Homo sapiens, UniProt Q00536); assay: DSF; type: binding; settings: 10 μM compound
T2 construct: purchased in-house DSF panel (SGC Frankfurt)
Text: as §1, §2

GSK3B [2] = biological target: T3, GSK3B (Homo sapiens, UniProt P49841); assay: DSF; type: binding; design: purchased in-house DSF panel (SGC Frankfurt); settings: 10 μM compound
Text: as §1, §2
Target sequence in this assay (P49841 35-386): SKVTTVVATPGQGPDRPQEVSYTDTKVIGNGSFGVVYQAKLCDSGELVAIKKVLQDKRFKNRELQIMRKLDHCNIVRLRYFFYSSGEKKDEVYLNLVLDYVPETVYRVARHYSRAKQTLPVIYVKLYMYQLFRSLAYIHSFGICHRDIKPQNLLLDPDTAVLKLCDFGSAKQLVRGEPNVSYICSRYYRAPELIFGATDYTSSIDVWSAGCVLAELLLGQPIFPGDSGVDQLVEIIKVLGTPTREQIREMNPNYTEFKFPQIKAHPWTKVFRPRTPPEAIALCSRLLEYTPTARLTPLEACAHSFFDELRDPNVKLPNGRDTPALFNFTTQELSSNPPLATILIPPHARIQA

GSK3B [3] = biological target: T3, GSK3B; assay: NanoBRET; type: cell-based; design: Full-length kinases were obtained as plasmids cloned in frame with a terminal NanoLuc-fusion; host or cells: HEK293T
Protocol: The assay was performed as described previously. In brief: Full-length kinases were obtained as plasmids cloned in frame with a terminal NanoLuc-fusion (Promega, Madison, WI, USA), as specified in table (Table S6). Plasmids were transfected into HEK293T cells using FuGENE HD (Promega, E2312) and proteins were allowed to express for 20h. Serially diluted inhibitor and NanoBRET Kinase Tracer (Promega) at a concentration determined previously as the KD,app (Table S5) were pipetted into white 384-well plates (Greiner 781207) using an Echo acoustic dispenser (Labcyte, San Jose, CA, USA). The corresponding protein-transfected cells were added and reseeded at a density of 2.5 × 10^5 cells/mL after trypsinization and resuspending in Opti-MEM without phenol red (Life Technologies, Carlsbad, CA, USA). The system was allowed to equilibrate for 2 h at 37 °C/5% CO2 prior to BRET measurements. To measure BRET, NanoBRET NanoGlo Substrate + Extracellular NanoLuc Inhibitor (Promega, N2540) was added as per the manufacturer’s protocol, and filtered luminescence was measured on a PHERAstar plate reader (BMG Labtech, Ortenberg, Germany) equipped with a luminescence filter pair (450 nm BP filter (donor) and 610 nm LP filter (acceptor)). […]
Target sequence in this assay (P49841 whole entry): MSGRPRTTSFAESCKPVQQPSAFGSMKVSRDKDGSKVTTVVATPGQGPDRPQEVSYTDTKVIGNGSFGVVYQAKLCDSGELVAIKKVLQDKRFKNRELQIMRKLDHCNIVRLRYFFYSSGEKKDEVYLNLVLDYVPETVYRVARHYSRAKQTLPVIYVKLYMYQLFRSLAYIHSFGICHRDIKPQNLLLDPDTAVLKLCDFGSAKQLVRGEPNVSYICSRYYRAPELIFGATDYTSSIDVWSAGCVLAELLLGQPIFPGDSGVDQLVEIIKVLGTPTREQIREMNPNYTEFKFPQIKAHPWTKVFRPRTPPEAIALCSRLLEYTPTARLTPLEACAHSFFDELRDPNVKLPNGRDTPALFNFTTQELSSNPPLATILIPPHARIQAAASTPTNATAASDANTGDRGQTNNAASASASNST

CDK16/Cyclin Y = biological target: T4, CDK16/Cyclin Y (Homo sapiens, UniProt Q00536); assay: NanoBRET; type: cell-based; settings: Figure 7, 11-point dose-response in duplicates; read-out: NanoBRET EC50 ± SEM against CDK16
T4 construct: Full-length kinases were obtained as plasmids cloned in frame with a terminal NanoLuc-fusion; CS1810C178 (CCNY); host or cells: HEK293T
Protocol: Next, to specifically quantify the outcome of the cellular activity of the compounds, a NanoBRET cellular target engagement assay was performed. The determination of the cellular potency on CDK16 correlated well with the corresponding DSF assay data (Figure S2). […] As mentioned before, the exchange from a methyl ester to an iso-propyl or tert-butyl ester led to a higher stabilization of the kinase in the DSF assay, which correlated with an increase in cellular potency as determined in the NanoBRET assay. […] The number of potential off-targets was low with 1 and 2 kinases with ΔTm >5 °C (Figure 4), highlighting these inhibitors for more comprehensive selectivity studied within the CDK and particular the TAIRE subfamily.
The assay was performed as described previously. In brief: Full-length kinases were obtained as plasmids cloned in frame with a terminal NanoLuc-fusion (Promega, Madison, WI, USA), as specified in table (Table S6). Plasmids were transfected into HEK293T cells using FuGENE HD (Promega, E2312) and proteins were allowed to express for 20h. Serially diluted inhibitor and NanoBRET Kinase Tracer (Promega) at a concentration determined previously as the KD,app (Table S5) were pipetted into white 384-well plates (Greiner 781207) using an Echo acoustic dispenser (Labcyte, San Jose, CA, USA). The corresponding protein-transfected cells were added and reseeded at a density of 2.5 × 10^5 cells/mL after trypsinization and resuspending in Opti-MEM without phenol red (Life Technologies, Carlsbad, CA, USA). The system was allowed to equilibrate for 2 h at 37 °C/5% CO2 prior to BRET measurements. To measure BRET, NanoBRET NanoGlo Substrate + Extracellular NanoLuc Inhibitor (Promega, N2540) was added as per the manufacturer’s protocol, and filtered luminescence was measured on a PHERAstar plate reader (BMG Labtech, Ortenberg, Germany) equipped with a luminescence filter pair (450 nm BP filter (donor) and 610 nm LP filter (acceptor)). Competitive displacement data were then graphed using GraphPad Prism 9 software using a normalized 3-parameter curve fit with the following equation: Y = 100/(1 + 10^(X–LogEC50)).

CDK16 and GSK3 = assay: proteome-wide CETSA MS; type: cell-based; settings: K562 cells, 30 µM, 60 min
Protocol: To verify whether the substances also lead to stabilization of proteins in the cellular system, proteome-wide CETSA experiments were performed. Therefore, lead structure 1 and some compounds from the second series (21b, 21d, 21e, 21h, and 21i) were selected for this study (Figure 6, Figure S1). While the statistical significance is plotted on the Y-axis, the relative protein amount is shown on the X-axis. […] Based on excellent proteome-wide selectivity identifying CDK16 and GSK3 as the most prominently stabilized kinases, 21d and 21i were selected for further investigations. […] We therefore decided to proceed with a CDK16-specific cellular assay.
Compressed CETSA MS assays, also known as PISA (Proteome Integral Stability Alteration assay), were performed as previously described by Chernobrovkin et. al., with some minor changes. K562 cells were obtained from ATCC. K562 cells were mixed with an equal volume of compound solution, final concentartion of 30 µM, in a buffer (20 mM HEPES, 138 mM NaCl, 5 mM KCl, 2 mM CaCl2, 1 mM MgCl2, pH 7.4). One percent and DMSO was used as a control. Cells were incubated at +37 °C for 60 min. The cell suspension was split into 12 aliquots which were heated at a different temperature between 44 and 66 °C for 3 min. After the heating, the cells were lysed through freeze–thawing them 3 times and the lysed aliquots were pooled together. Cell debris and aggregates were removed through centrifugation (20 min at 30.000× g).

[4] = system: in-house panel of 89–105 kinases; assay: DSF selectivity screen; type: binding; settings: number of kinases of the DSF panel
Text: To investigate the selectivity profile of the different series, a differential scanning fluorimetry (DSF) assay was used. This assay offers a rapid and sensitive screening method that determines the denaturation temperature of a protein in absence and presence of a compound. This assay format measures the fluorescence of a dye, which depends on the folding state of the protein. The difference between the melting temperature (ΔTm) in the absence and presence of the compound represents the binding strength to the protein. We used an in-house panel of 89–105 kinases to screen all synthesized inhibitors (Tables S1–S3).
as §2

359 wild-type kinases = system: 359 wild-type kinases; design: method as in PMID 19053485; settings: kinome-wide screen; cited from earlier work
CDK5 = settings: cited from earlier work
CDK2 [5] = biological target: T1, CDK2; settings: cited from earlier work

T4 sequence (Q00536 whole entry, the tested form may be a part): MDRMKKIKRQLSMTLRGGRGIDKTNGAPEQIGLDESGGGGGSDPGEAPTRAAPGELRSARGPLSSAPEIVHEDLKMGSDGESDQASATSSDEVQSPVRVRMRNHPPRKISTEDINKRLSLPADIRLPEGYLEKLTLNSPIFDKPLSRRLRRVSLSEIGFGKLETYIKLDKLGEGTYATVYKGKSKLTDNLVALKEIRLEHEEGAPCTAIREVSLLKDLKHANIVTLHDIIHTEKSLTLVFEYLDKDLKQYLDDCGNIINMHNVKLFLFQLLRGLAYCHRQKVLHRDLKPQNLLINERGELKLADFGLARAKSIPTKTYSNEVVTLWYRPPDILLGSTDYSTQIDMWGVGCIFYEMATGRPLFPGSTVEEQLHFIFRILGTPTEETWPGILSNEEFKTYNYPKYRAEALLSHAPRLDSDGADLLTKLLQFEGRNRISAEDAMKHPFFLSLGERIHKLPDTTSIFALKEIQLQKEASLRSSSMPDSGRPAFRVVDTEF
T4 sequence (Q8ND76 2-341 partner limits assumed): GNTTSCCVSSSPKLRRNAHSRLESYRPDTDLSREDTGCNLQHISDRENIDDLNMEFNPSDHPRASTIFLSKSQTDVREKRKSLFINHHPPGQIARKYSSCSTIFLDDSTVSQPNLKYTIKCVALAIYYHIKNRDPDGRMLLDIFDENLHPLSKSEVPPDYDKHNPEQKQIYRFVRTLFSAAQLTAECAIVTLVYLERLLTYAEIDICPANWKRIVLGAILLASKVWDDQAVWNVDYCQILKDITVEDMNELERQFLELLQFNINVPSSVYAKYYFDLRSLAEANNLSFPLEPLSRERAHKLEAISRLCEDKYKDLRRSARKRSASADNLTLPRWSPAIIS
T2 sequence (Q00536 163-478): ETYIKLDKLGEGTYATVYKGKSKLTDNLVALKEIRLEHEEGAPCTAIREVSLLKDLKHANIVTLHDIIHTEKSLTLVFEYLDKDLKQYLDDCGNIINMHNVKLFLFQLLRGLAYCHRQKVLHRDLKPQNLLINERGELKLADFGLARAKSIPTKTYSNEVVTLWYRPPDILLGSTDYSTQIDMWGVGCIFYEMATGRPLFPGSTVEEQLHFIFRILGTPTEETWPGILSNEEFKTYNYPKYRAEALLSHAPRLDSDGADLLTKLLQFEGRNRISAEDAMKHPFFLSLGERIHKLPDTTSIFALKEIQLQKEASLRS

Question: What does the source list for `COC(=O)c1cc(Nc2ccnc(Nc3ccc(CCN)cc3)n2)n[nH]1` [compound 24, methyl 3-((2-((4-(2-aminoethyl)phenyl)amino)pyrimidin-4-yl)amino)-1H-pyrazole-5-carboxylate]?
Answer: ΔTm at 10 µM (CDK2 [1]): 3 °C; ΔTm at 10 µM (CDK16): 2.4 ± 0.1 °C; ΔTm at 10 µM (GSK3B [2]): 9.5 °C; EC50 (GSK3B [3]): 18000 nM; EC50 (CDK16/Cyclin Y): 2830 ± 544 nM

Question: Which results are given for `COC(=O)c1cc(Nc2ccnc(Nc3ccc(CNC(=O)OC(C)(C)C)cc3)n2)[nH]n1` [21h, methyl 5-((2-((4-(((tert-butoxycarbonyl)amino)methyl)phenyl)amino)pyrimidin-4-yl)amino)-1H-pyrazole-3-carboxylate]?
Answer: ΔTm at 10 µM (CDK2 [1]): 2.5 ± 0.2 °C; ΔTm at 10 µM (CDK16): 5.1 ± 0.1 °C; ΔTm at 10 µM (GSK3B [2]): 6 ± 0.3 °C; EC50 (CDK16/Cyclin Y): 391 nM; stabilization in CETSA MS (CDK16 and GSK3): stabilization of CDK16 and GSK3; Kinases with shifts > 5°C [4]: 4–9

Question: Which “number of kinases targeted of 359 wild-type kinases” value (359 wild-type kinases) does the source give for `N#CCc1ccc(Nc2nc(Nc3cc(C4CC4)[nH]n3)c3ccccc3n2)cc1` [compound 3] here?
Answer: Its value is 317.

Question: For `COC(=O)c1cc(Nc2ccnc(NCCCCCCNC(=O)OC(C)(C)C)n2)[nH]n1` [21e, methyl 5-((2-((6-((tert-butoxycarbonyl)amino)hexyl)amino)pyrimidin-4-yl)amino)-1H-pyrazole-3-carboxylate], which ΔTm at 10 µM (CDK2 [1]) is on record?
Answer: The ΔTm at 10 µM was 6.5 ± 0.1 °C.

Question: What about the ΔTm at 10 µM (CDK16) of the same compound?
Answer: Its ΔTm at 10 µM is 8.5 °C.

Question: And the ΔTm at 10 µM (GSK3B [2])?
Answer: Its ΔTm at 10 µM is 8.6 ± 0.1 °C.

Question: What about the EC50 (CDK16/Cyclin Y) of the same compound?
Answer: Its EC50 is 152 nM.

Question: And the “stabilization in CETSA MS” value (CDK16 and GSK3)?
Answer: Its value is “stabilization of CDK16 and GSK3”.

Question: Which “affinity for CDK5” value (CDK5) does the source give for `Cc1cc(Nc2cc(N3CCN(C)CC3)nc(Sc3ccc(NC(=O)C4CC4)cc3)n2)[nH]n1` [tozasertib] here?
Answer: Its value is “no affinity”.

Question: And the “affinity for CDK2” value (CDK2 [5])?
Answer: Its value is “no affinity”.

Question: What does the source list for `CC(C)OC(=O)c1cc(Nc2ccnc(NCCCCCNC(=O)OC(C)(C)C)n2)n[nH]1` [42b, isopropyl 3-((2-((5-((tert-butoxycarbonyl)amino)pentyl)amino)pyrimidin-4-yl)amino)-1H-pyrazole-5-carboxylate]?
Answer: ΔTm at 10 µM (CDK2 [1]): 6.5 °C; ΔTm at 10 µM (CDK16): 9.1 ± 0.1 °C; ΔTm at 10 µM (GSK3B [2]): 7.8 ± 0.3 °C; EC50 (CDK16/Cyclin Y): 54 ± 1.8 nM; Kinases with shifts > 5°C [4]: 7–10

Question: Which ΔTm at 10 µM (CDK2 [1]) does the source give for `COC(=O)c1cc(Nc2ccnc(Nc3cccc(CCNC(=O)OC(C)(C)C)c3)n2)[nH]n1` [21b, methyl 5-((2-((3-(2-((tert-butoxycarbonyl)amino)ethyl)phenyl)amino)pyrimidin-4-yl)amino)-1H-pyrazole-3-carboxylate] here?
Answer: The ΔTm at 10 µM was 4.6 ± 0.1 °C.

Question: What about the ΔTm at 10 µM (CDK16) of the same compound?
Answer: Its ΔTm at 10 µM is 4.9 °C.

Question: And the ΔTm at 10 µM (GSK3B [2])?
Answer: Its ΔTm at 10 µM is 8.6 ± 0.2 °C.

Question: And the EC50 (CDK16/Cyclin Y)?
Answer: Its EC50 is 688 ± 22.5 nM.

Question: What about the “stabilization in CETSA MS” value (CDK16 and GSK3) of the same compound?
Answer: The value was “stabilization of CDK16 and GSK3”.
